Our source for the EC50 and Emax values is patent US8846951B2 (AbbVie Inc., priority 2009, dated 2014).

For one assay, the target named is T1, 5HT2B receptors (Homo sapiens, UniProt P41595).
T1 construct: expressed in transfected cells; host or cells: CHO-K1 cells
In words: Human 5-HT2B functional high throughput screening assay in CHO-K1 cells (calcium flux). Format: cell-based. The settings on record: for pEC50: CHO-K1 cells, calcium flux. Put shortly:
(§1)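 Calcium flux in CHO-K1 cells overexpressing each receptor, using Ca4 dye with probenecid and FLIPR detection. Top concentration was 10 μM, diluted 1:10 across 6 points, and efficacy was scaled to serotonin.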

Another assay has as its target T2, 5HT2C receptors (Homo sapiens, UniProt P28335).
T2 sequence (P28335 33-458): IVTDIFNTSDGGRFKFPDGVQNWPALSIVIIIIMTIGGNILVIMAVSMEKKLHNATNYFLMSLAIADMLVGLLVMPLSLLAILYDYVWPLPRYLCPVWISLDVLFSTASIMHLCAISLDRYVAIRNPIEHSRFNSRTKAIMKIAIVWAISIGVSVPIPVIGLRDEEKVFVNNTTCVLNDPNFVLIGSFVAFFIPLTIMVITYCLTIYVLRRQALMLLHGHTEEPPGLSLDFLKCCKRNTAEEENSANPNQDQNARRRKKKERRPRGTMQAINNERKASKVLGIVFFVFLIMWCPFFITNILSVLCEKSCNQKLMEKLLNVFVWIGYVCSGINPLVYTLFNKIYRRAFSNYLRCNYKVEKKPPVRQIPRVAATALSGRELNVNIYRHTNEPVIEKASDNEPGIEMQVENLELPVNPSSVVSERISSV
The experiment in a line: Human 5-HT2C functional high throughput screening assay in CHO-K1 cells (calcium flux). The class given is cell-based. The arrangement: expressed in transfected cells; host or cells: CHO-K1 cells. Particulars: for pEC50: CHO-K1 cells, calcium flux; for Emax: 5-HT2C, maximum functional response as percentage relative to the effect of serotonin; call rule not given here. The essentials:
as §1

The mark [1] stands for this setting: 5-HT2B agonist activity, read-out: EC50.
[2] abbreviates: 5-HT2B, maximum functional response as percentage relative to the effect of serotonin.
The mark [3] stands for this setting: 5-HT2C agonist activity, read-out: EC50.

pEC50: −log10 of the molar value. Like-named read-outs stand apart in the source and are kept apart here.

T1 sequence (P41595 whole entry): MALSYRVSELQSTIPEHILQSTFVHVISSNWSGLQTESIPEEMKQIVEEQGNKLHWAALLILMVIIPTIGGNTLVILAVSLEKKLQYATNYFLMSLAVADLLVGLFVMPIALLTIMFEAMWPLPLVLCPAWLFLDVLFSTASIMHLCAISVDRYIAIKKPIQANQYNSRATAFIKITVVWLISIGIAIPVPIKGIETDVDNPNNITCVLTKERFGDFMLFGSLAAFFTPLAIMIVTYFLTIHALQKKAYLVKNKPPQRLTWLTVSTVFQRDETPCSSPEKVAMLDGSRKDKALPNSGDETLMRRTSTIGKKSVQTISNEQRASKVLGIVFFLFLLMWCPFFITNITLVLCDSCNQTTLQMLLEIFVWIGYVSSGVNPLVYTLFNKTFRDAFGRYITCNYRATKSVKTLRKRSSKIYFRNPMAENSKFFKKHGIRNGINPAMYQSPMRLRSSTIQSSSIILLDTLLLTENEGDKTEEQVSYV

Broadly, the pEC50 is the negative decadic logarithm of the EC50, by convention in mol/L. The term Emax denotes the size of the effect at its maximum, as opposed to the concentration needed. With `CN1C[C@H]2CNC(=O)c3cc(C4CCOCC4)ccc3[C@@H]2C1` (relative stereo) [Example 267, Trans-2-methyl-8-(tetrahydro-2H-pyran-4-yl)-1,2,3,3a,4,5-hexahydrobenzo[c]pyrrolo[3,4-e]azepin-6(10bH)-one], the pEC50 is less than 5.00 on 5HT2B receptors (setting [1]) and 6.00 at 5HT2C receptors (setting [3]). In addition, the Emax result was “inactive” on 5HT2B receptors (setting [2]) and 90% at 5HT2C receptors (CHO-K1, read-out: Emax).
`Cc1cccc2c1OCC[C@H]1CNC[C@H]21` (relative stereo) [Example 291, Trans-7-methyl-2,3,3a,4,5,10b-hexahydro-1H-[1]benzoxepino[4,5-c]pyrrole]: the Emax at 5HT2B receptors (CHO-K1) amounted to 60%; on 5HT2C receptors (CHO-K1) it was 95%. In addition, the pEC50 at 5HT2B receptors (EC50, 5-HT2B agonist activity) is 8.00; at 5HT2C receptors (EC50, 5-HT2C agonist activity), 9.40.
Consider `O=S(=O)(c1ccc(OC(F)(F)F)cc1)N1Cc2cccnc2[C@@H]2CNC[C@H]2C1` (relative stereo) [Example 349, Trans-6-{[4-(trifluoromethoxy)phenyl]sulfonyl}-5,6,7,7a,8,9,10,10a-octahydropyrido[3,2-c]pyrrolo[3,4-e]azepine], for which the pEC50 at 5HT2B receptors (setting [1]) is less than 5.00; on 5HT2C receptors (setting [3]) it was 6.70. Besides, the Emax result at 5HT2B receptors (setting [2]) was “inactive”; on 5HT2C receptors (CHO-K1, read-out: Emax) it was 90%.
The corresponding values for `CN1C[C@H]2CNC(=O)c3cc(-c4ccc(OC(F)(F)F)cc4)ccc3[C@@H]2C1` (relative stereo) [Example 140, Trans-2-methyl-8-(4-(trifluoromethoxy)phenyl)-1,2,3,3a,4,5-hexahydrobenzo[e]pyrrolo[3,4-c]azepin-6(10bH)-one] are less than 5.00, 7.22, “inactive” and greater than 120%.
In the case of `O=C1NC[C@@H]2CNC[C@H]2c2ccc(OCC3CCCCC3)cc21` (relative stereo) [Example 167, Trans-8-(cyclohexylmethoxy)-1,2,3,3a,4,5-hexahydrobenzo[e]pyrrolo[3,4-c]azepin-6(10bH)-one], the Emax entry at 5HT2B receptors (setting [2]) is “inactive”; at 5HT2C receptors (CHO-K1), greater than 120%. The pEC50 was less than 5.00 on 5HT2B receptors (EC50, 5-HT2B agonist activity) and 8.30 at 5HT2C receptors (EC50, 5-HT2C agonist activity).
For `CC(C)COc1ccc2c(c1)C(=O)NC[C@@H]1CN(C)C[C@@H]21` (relative stereo) [Example 172, Trans-8-isobutoxy-2-methyl-1,2,3,3a,4,5-hexahydrobenzo[e]pyrrolo[3,4-c]azepin-6(10bH)-one], the Emax entry at 5HT2B receptors (setting [2]) was “inactive”; at 5HT2C receptors (CHO-K1), greater than 120%. Also, the negative logarithm of the EC50 (pEC50) at 5HT2B receptors (EC50, 5-HT2B agonist activity) is less than 5.00; at 5HT2C receptors (EC50, 5-HT2C agonist activity), 7.22.
In the case of “Trans-8-(3-chloro-1H-pyrrol-2-yl)-2-methyl-2,3,3a,4,5,10b-hexahydropyrrolo[3,4-d][2]benzazepin-6(1H)-one and Trans-8-(5-chloro-1H-pyrrol-2-yl)-2-methyl-2,3,3a,4,5,10b-hexahydropyrrolo[3,4-d][2]benzazepin-6(1H)-one [Example 386]”, the pEC50 at 5HT2B receptors (setting [1]) is less than 5.00; on 5HT2C receptors (setting [3]) it was 7.70. Besides, the maximum response (Emax) entry on 5HT2B receptors (setting [2]) is “inactive”; on 5HT2C receptors it was 65%.
Turning to `COc1cccc(S(=O)(=O)N2Cc3cccnc3[C@@H]3CNC[C@H]3C2)c1` (relative stereo) [Example 336, Trans-6-[(3-methoxyphenyl)sulfonyl]-5,6,7,7a,8,9,10,10a-octahydropyrido[3,2-e]pyrrolo[3,4-e]azepine], the pEC50 is 6.22 on 5HT2B receptors (setting [1]) and 7.05 at 5HT2C receptors (setting [3]). For the same compound, the Emax on 5HT2B receptors (CHO-K1, 5-HT2B, maximum functional response as percentage relative to the effect of serotonin, read-out: Emax) is 70%; at 5HT2C receptors (CHO-K1, read-out: Emax), 90%.
`O=C1NC[C@@H]2CN(Cc3ccccc3)C[C@H]2c2cccc(OC(F)(F)F)c21` (relative stereo) [Example 102, Trans-2-benzyl-7-(trifluoromethoxy)-1,2,3,3a,4,5-hexahydrobenzo[c]pyrrolo[3,4-e]azepin-6(10bH)-one]: the pEC50 at 5HT2B receptors (setting [1]) is less than 5.00; at 5HT2C receptors (setting [3]), 7.00. In addition, the Emax result at 5HT2B receptors (setting [2]) is “inactive”; on 5HT2C receptors (CHO-K1, read-out: Emax) it was greater than 120%.
For the compound `COc1cc(F)ccc1-c1ccc2c(c1)C(=O)NC[C@@H]1CN(C)C[C@@H]21` (relative stereo) [Example 299, Trans-8-(4-fluoro-2-methoxyphenyl)-2-methyl-2,3,3a,4,5,10b-hexahydropyrrolo[3,4-d][2]benzazepin-6(1H)-one], the pEC50 at 5HT2B receptors (setting [1]) is less than 5.00; on 5HT2C receptors (setting [3]), 8.00. Further, the maximum response (Emax) result at 5HT2B receptors (setting [2]) was “inactive”; at 5HT2C receptors (CHO-K1, read-out: Emax), 100%.
On the same counts, the results for `COc1cccc(CCOc2ccc3c(c2)C(=O)NC[C@@H]2CNC[C@@H]32)c1` (relative stereo) [Example 174, Trans-8-(3-methoxyphenethoxy)-1,2,3,3a,4,5-hexahydrobenzo[e]pyrrolo[3,4-c]azepin-6(10bH)-one] are less than 5.00, 7.52, “inactive” and 110%.
Consider `COC(=O)c1cccc2c1NCC[C@@H]1CNC[C@@H]21` (relative stereo) [Example 402, Methyl trans-1,2,3,3a,4,5,6,10b-octahydropyrrolo[3,4-d][1]benzazepine-7-carboxylate], for which the Emax at 5HT2B receptors (CHO-K1) is 75%; on 5HT2C receptors (CHO-K1) it was 100%. In addition, the pEC50 at 5HT2B receptors (EC50, 5-HT2B agonist activity) is 6.70; on 5HT2C receptors (EC50, 5-HT2C agonist activity), 7.52.
For `CN1C[C@H]2CNC(=O)c3cc(-c4cccc(C(C)(C)O)c4)ccc3[C@@H]2C1` (relative stereo) [Example 186, Trans-8-(3-(2-hydroxypropan-2-yl)phenyl)-2-methyl-1,2,3,3a,4,5-hexahydrobenzo[e]pyrrolo[3,4-c]azepin-6(10bH)-one], the negative logarithm of the EC50 (pEC50) on 5HT2B receptors (setting [1]) was less than 5.00; at 5HT2C receptors (setting [3]) it was 9.00. For the same compound, the maximum response (Emax) entry at 5HT2B receptors (setting [2]) was “inactive”; on 5HT2C receptors (CHO-K1, read-out: Emax), greater than 120%.
For `CN1C[C@H]2CCOc3ncccc3[C@@H]2C1` (relative stereo) [Example 268, Trans-2-methyl-2,3,3a,4,5,10b-hexahydro-1H-pyrrolo[3′,4′:4,5]oxepino[2,3-b]pyridine], the results for the negative-log EC50 (pEC50) on 5HT2B receptors (setting [1]) and on 5HT2C receptors (setting [3]) were less than 5.00 and 5.15, respectively. Also, the Emax entry on 5HT2B receptors (setting [2]) was “inactive”; on 5HT2C receptors (CHO-K1), 70%.
For `O=S(=O)(c1ccccc1Cl)N1Cc2cccnc2[C@@H]2CNC[C@H]2C1` (relative stereo) [Example 362, Trans-6-[(2-chlorophenyl)sulfonyl]-5,6,7,7a,8,9,10,10a-octahydropyrido[3,2-c]pyrrolo[3,4-e]azepine], the figures for the Emax at 5HT2B receptors (CHO-K1) and at 5HT2C receptors (CHO-K1) were 75% and 80%, respectively. In addition, the pEC50 was 6.52 at 5HT2B receptors (EC50, 5-HT2B agonist activity) and 7.00 at 5HT2C receptors (EC50, 5-HT2C agonist activity).
On to `Cc1cccc(S(=O)(=O)N2Cc3cccnc3[C@@H]3CNC[C@H]3C2)c1` (relative stereo) [Example 348, Trans-6-[(3-methylphenyl)sulfonyl]-5,6,7,7a,8,9,10,10a-octahydropyrido[3,2-c]pyrrolo[3,4-e]azepine], for which the Emax on 5HT2B receptors (CHO-K1) was determined as 50%; at 5HT2C receptors (CHO-K1) it was 85%. Besides, the pEC50 at 5HT2B receptors (EC50, 5-HT2B agonist activity) was 6.10; at 5HT2C receptors (EC50, 5-HT2C agonist activity) it was 7.15.
As to `CN1C[C@H]2CNC(=O)c3cc(-c4ccc(F)cc4)ccc3[C@@H]2C1` (relative stereo) [Example 75, Trans-8-(4-fluorophenyl)-2-methyl-1,2,3,3a,4,5-hexahydrobenzo[e]pyrrolo[3,4-c]azepin-6(10bH)-one], the pEC50 on 5HT2B receptors (setting [1]) is less than 5.00. Further, the Emax result at 5HT2B receptors (setting [2]) is “inactive”; on 5HT2C receptors (CHO-K1, read-out: Emax) it was greater than 120%.
